# Numbered stars: 1 amine (or outer) side, 2 acyl side, 3 side chain; on linkers, the order of the positions; unused ones are H or OH. Square brackets hold non-standard residues; d marks the D form. Side chains are listed from the residue outwards. Peptide text beside a SMILES is read from it. * marks the point of attachment. γGlu = O=C(O)[C@H](CCC(=O)[*:2])N[*:1]; Palmitoyl = CCCCCCCCCCCCCCCC(=O)*; Aib = CC(C)(N)C(=O)O
# Legend:
# [1] = Solubility assessment (UPLC-UV); assay type: physicochemical; conditions: acetate buffer pH 4.5, 2.7 mg/ml m-cresol (buffer system A), target 10 mg/ml
# Summary of the method: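 Peptides at 10 mg/mL (purity-corrected, by UPLC/MS) in 100 mM acetate buffer pH 4.5 with 2.7 mg/ml m-Cresol, gently agitated 1 hour, then centrifuged 15 min at 2500 RCF. Supernatant, diluted 1:10, quantified by UPLC-UV peak area against a reference peptide standard curve, extinction-coefficient corrected.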
# [2] = Dynamic light scattering (DLS), hydrodynamic radius as surrogate for interaction parameter kD; assay type: physicochemical; conditions: for Delta Rh [nm] = Rh5 − Rh1: DLS buffer system A pH 4.5; for Rh1 [nm] c= 1 mg/ml / Rh5 [nm] c = 5 mg/ml: hydrodynamic radius, DLS buffer system A pH 4.5, DLS method C, 25° C.
# Summary of the method: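 Rh and diffusion constant measured in triplicate at 1 and 5 mg/ml peptide in 25 mM acetate pH4.5 with methionine, m-cresol and glycerol, at 25°C, 830 nm, 158°. Rh5<Rh1 or D5>D1 taken as kD>0, indicating repulsive interactions.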
# [3] = molecular target: T1, human GLP-1 receptor (hGLP-1 R) (Homo sapiens, UniProt P43220); experiment: cAMP response (HTRF) of HEK-293 cells stably expressing human GLP-1 receptor; assay type: cell-based; conditions: Table 8; cAMP formation
# T1 construct: expressed in transfected cells; host or cells: HEK-293
# T1 sequence (P43220 24-463): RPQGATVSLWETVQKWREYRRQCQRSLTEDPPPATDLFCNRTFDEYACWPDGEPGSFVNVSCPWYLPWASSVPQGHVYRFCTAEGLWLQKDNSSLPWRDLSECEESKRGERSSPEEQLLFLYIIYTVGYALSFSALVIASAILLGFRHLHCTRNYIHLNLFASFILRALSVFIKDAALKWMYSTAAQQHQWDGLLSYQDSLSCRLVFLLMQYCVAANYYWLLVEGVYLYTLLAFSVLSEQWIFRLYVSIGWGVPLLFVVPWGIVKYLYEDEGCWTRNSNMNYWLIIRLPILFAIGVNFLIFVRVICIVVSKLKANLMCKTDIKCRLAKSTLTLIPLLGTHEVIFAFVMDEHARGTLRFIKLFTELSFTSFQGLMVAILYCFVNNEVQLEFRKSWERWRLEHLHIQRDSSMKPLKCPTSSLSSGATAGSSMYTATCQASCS
# Protocol: cAMP content of cells was determined using a kit from Cisbio Corp. (cat. no. 62AM4PEJ) based on HTRF (Homogenous Time Resolved Fluorescence). For preparation, cells were split into T175 culture flasks and grown overnight to near confluency in medium (DMEM/10% FBS). Medium was then removed and cells washed with PBS lacking calcium and magnesium, followed by proteinase treatment with accutase (Sigma-Aldrich cat. no. A6964). Detached cells were washed and resuspended in assay buffer (1×HBSS; 20 mM HEPES, 0.1% BSA, 2 mM IBMX) and cellular density determined. They were then diluted to 400000 cells/ml and 25 μl-aliquots dispensed into the wells of 96-well plates. For measurement, 25 μl of test compound in assay buffer was added to the wells, followed by incubation for 30 minutes at room temperature.
# Potencies of peptidic compounds at the GLP-1, glucagon and GIP receptors were determined by exposing cells expressing human glucagon receptor (hGlucagon R), human GIP receptor (hGIP-R) or human GLP-1 receptor (hGLP-1 R) to the listed compounds at increasing concentrations and measuring the formed cAMP as described in Methods.
Compound,solubility at 1 h [1],Delta Rh [nm] = Rh5 − Rh1 [2],Rh1 [nm] c= 1 mg/ml [2],Rh5 [nm] c = 5 mg/ml [2],EC50 [3]
"CCCCCCCCCCCCCCCC(=O)N[C@@H](CCC(=O)N[C@@H](CCC(=O)NCCCC[C@H](NC(=O)[C@H](CC(C)C)NC(=O)[C@H](CCCCN)NC(=O)[C@H](CO)NC(=O)[C@H](CC(C)C)NC(=O)[C@H](CC(=O)O)NC(=O)[C@H](CO)NC(=O)[C@@H](NC(=O)[C@H](Cc1ccccc1)NC(=O)[C@@H](NC(=O)CNC(=O)[C@H](CCC(N)=O)NC(=O)C(C)(C)NC(=O)[C@@H](N)Cc1c[nH]cn1)[C@@H](C)O)[C@@H](C)O)C(=O)N[C@@H](CCC(=O)O)C(=O)N[C@@H](CCCCN)C(=O)N[C@@H](CCC(N)=O)C(=O)N[C@@H](CCCNC(=N)N)C(=O)N[C@@H](CCC(N)=O)C(=O)NC(C)(C)C(=O)N[C@@H](CCC(=O)O)C(=O)N[C@@H](Cc1ccccc1)C(=O)N[C@H](C(=O)N[C@@H](CCC(=O)O)C(=O)N[C@@H](Cc1c[nH]c2ccccc12)C(=O)N[C@@H](CC(C)C)C(=O)N[C@@H](CCCCN)C(=O)N[C@@H](C)C(=O)NCC(=O)NCC(=O)N1CCC[C@H]1C(=O)N1CCC[C@H]1C(=O)N[C@@H](CO)C(=O)NC(C)(C)C(=O)N[C@@H](CCCCN)C(=O)N1CCC[C@H]1C(=O)N1CCC[C@H]1C(=O)N1CCC[C@H]1C(=O)N[C@@H](CCCCN)C(N)=O)[C@@H](C)CC)C(=O)O)C(=O)O [SEQ ID NO: 6, H-Aib-Q-G-T-F-T-S-D-L-S-K-L-K[gGlu-gGlu-Palm]-E-K-Q-R-Q-Aib-E-F-I-E-W-L-K-A-G-G-P-P-S-Aib-K-P-P-P-K-NH2]",> 9600 µg/mL,−0.5 nm,2.3 nm,1.8 nm,
"CCCCCCCCCCCCCCCC(=O)N[C@@H](CCC(=O)N[C@@H](CCC(=O)NCCCC[C@H](NC(=O)[C@H](CC(C)C)NC(=O)[C@H](CCCCN)NC(=O)[C@H](CO)NC(=O)[C@H](CC(C)C)NC(=O)[C@H](CC(=O)O)NC(=O)[C@H](CO)NC(=O)[C@@H](NC(=O)[C@H](Cc1ccccc1)NC(=O)[C@@H](NC(=O)CNC(=O)[C@H](CCC(N)=O)NC(=O)C(C)(C)NC(=O)[C@@H](N)Cc1c[nH]cn1)[C@@H](C)O)[C@@H](C)O)C(=O)N[C@@H](CCC(=O)O)C(=O)N[C@@H](CCCCN)C(=O)N[C@@H](CCC(N)=O)C(=O)N[C@@H](CCCNC(=N)N)C(=O)N[C@@H](CCC(N)=O)C(=O)NC(C)(C)C(=O)N[C@@H](CCC(=O)O)C(=O)N[C@@H](Cc1ccccc1)C(=O)N[C@H](C(=O)N[C@@H](CCC(=O)O)C(=O)N[C@@H](Cc1c[nH]c2ccccc12)C(=O)N[C@@H](CC(C)C)C(=O)N[C@@H](CCCCN)C(=O)N[C@@H](C)C(=O)N[C@H](C)C(=O)NCC(=O)N1CCC[C@H]1C(=O)N1CCC[C@H]1C(=O)N[C@@H](CO)C(=O)NC(C)(C)C(=O)N[C@@H](CCCCN)C(=O)N1CCC[C@H]1C(=O)N1CCC[C@H]1C(=O)N1CCC[C@H]1C(=O)N[C@@H](CCCCN)C(N)=O)[C@@H](C)CC)C(=O)O)C(=O)O [SEQ ID NO: 7, H-Aib-Q-G-T-F-T-S-D-L-S-K-L-K[gGlu-gGlu-Palm]-E-K-Q-R-Q-Aib-E-F-I-E-W-L-K-A-dAla-G-P-P-S-Aib-K-P-P-P-K-NH2] (H-H[Aib]QGTFTSDLSKLK([γGlu-γGlu-Palmitoyl])EKQRQ[Aib]EFIEWLKA[dA]GPPS[Aib]KPPPK-NH2)",> 9900 µg/mL,−0.3 nm,2.8 nm,2.4 nm,
"CCCCCCCCCCCCCCCC(=O)N[C@@H](CCC(=O)N[C@@H](CCC(=O)NCCCC[C@H](NC(=O)[C@H](CC(C)C)NC(=O)[C@H](CCCCN)NC(=O)[C@H](CO)NC(=O)[C@H](CC(C)C)NC(=O)[C@H](CC(=O)O)NC(=O)[C@H](CO)NC(=O)[C@@H](NC(=O)[C@H](Cc1ccccc1)NC(=O)[C@@H](NC(=O)CNC(=O)[C@H](CCC(N)=O)NC(=O)C(C)(C)NC(=O)[C@@H](N)Cc1c[nH]cn1)[C@@H](C)O)[C@@H](C)O)C(=O)N[C@@H](CCC(=O)O)C(=O)N[C@@H](CCC(=O)O)C(=O)N[C@@H](CCC(N)=O)C(=O)N[C@@H](CCCNC(=N)N)C(=O)N[C@@H](CCC(N)=O)C(=O)NC(C)(C)C(=O)N[C@@H](CCC(=O)O)C(=O)N[C@@H](Cc1ccccc1)C(=O)N[C@H](C(=O)N[C@@H](CCC(=O)O)C(=O)N[C@@H](Cc1c[nH]c2ccccc12)C(=O)N[C@@H](CC(C)C)C(=O)N[C@@H](CCCCN)C(=O)N[C@@H](C)C(=O)NCC(=O)NCC(=O)N[C@@H](Cc1c[nH]cn1)C(=O)N1CCC[C@H]1C(=O)N[C@@H](CO)C(=O)NC(C)(C)C(=O)N[C@@H](CCCCN)C(=O)N1CCC[C@H]1C(=O)N1CCC[C@H]1C(=O)N1CCC[C@H]1C(=O)N[C@@H](CCCCN)C(N)=O)[C@@H](C)CC)C(=O)O)C(=O)O [SEQ ID NO: 8, H-Aib-Q-G-T-F-T-S-D-L-S-K-L-K[gGlu-gGlu-Palm]-E-E-Q-R-Q-Aib-E-F-I-E-W-L-K-A-G-G-H-P-S-Aib-K-P-P-P-K-NH2]",> 10000 µg/mL,,,,
"CCCCCCCCCCCCCCCC(=O)N[C@@H](CCC(=O)N[C@@H](CCC(=O)NCCCC[C@H](NC(=O)[C@H](CC(C)C)NC(=O)[C@H](CCCCN)NC(=O)[C@H](CO)NC(=O)[C@H](CC(C)C)NC(=O)[C@H](CC(=O)O)NC(=O)[C@H](CO)NC(=O)[C@@H](NC(=O)[C@H](Cc1ccccc1)NC(=O)[C@@H](NC(=O)CNC(=O)[C@H](CCC(N)=O)NC(=O)C(C)(C)NC(=O)[C@@H](N)Cc1c[nH]cn1)[C@@H](C)O)[C@@H](C)O)C(=O)N[C@@H](CCC(=O)O)C(=O)N[C@@H](CCC(=O)O)C(=O)N[C@@H](CCC(N)=O)C(=O)N[C@@H](CCCNC(=N)N)C(=O)N[C@@H](CCC(N)=O)C(=O)NC(C)(C)C(=O)N[C@@H](CCC(=O)O)C(=O)N[C@@H](Cc1ccccc1)C(=O)N[C@H](C(=O)N[C@@H](CCC(=O)O)C(=O)N[C@@H](Cc1c[nH]c2ccccc12)C(=O)N[C@@H](CC(C)C)C(=O)N[C@@H](CCCCN)C(=O)N[C@@H](C)C(=O)N[C@H](C)C(=O)NCC(=O)N1CCC[C@H]1C(=O)N1CCC[C@H]1C(=O)N[C@@H](CO)C(=O)NC(C)(C)C(=O)N[C@@H](CCCCN)C(=O)N1CCC[C@H]1C(=O)N1CCC[C@H]1C(=O)N1CCC[C@H]1C(=O)N[C@@H](CCCCN)C(N)=O)[C@@H](C)CC)C(=O)O)C(=O)O [SEQ ID NO: 10, H-Aib-Q-G-T-F-T-S-D-L-S-K-L-K[gGlu-gGlu-Palm]-E-E-Q-R-Q-Aib-E-F-I-E-W-L-K-A-dAla-G-P-P-S-Aib-K-P-P-P-K-NH2] (H-H[Aib]QGTFTSDLSKLK([γGlu-γGlu-Palmitoyl])EEQRQ[Aib]EFIEWLKA[dA]GPPS[Aib]KPPPK-NH2)",> 10100 µg/mL,,,,2.4 pM
"CCCCCCCCCCCCCCCC(=O)N[C@@H](CCC(=O)N[C@@H](CCC(=O)NCCCC[C@H](NC(=O)[C@H](CC(C)C)NC(=O)[C@H](CCCCN)NC(=O)[C@H](CO)NC(=O)[C@H](CC(C)C)NC(=O)[C@H](CC(=O)O)NC(=O)[C@H](CO)NC(=O)[C@@H](NC(=O)[C@H](Cc1ccccc1)NC(=O)[C@@H](NC(=O)CNC(=O)[C@H](CCC(N)=O)NC(=O)C(C)(C)NC(=O)[C@@H](N)Cc1c[nH]cn1)[C@@H](C)O)[C@@H](C)O)C(=O)N[C@@H](CCC(=O)O)C(=O)N[C@@H](CCCCN)C(=O)N[C@@H](CCC(N)=O)C(=O)N[C@@H](CCCNC(=N)N)C(=O)N[C@@H](CCC(N)=O)C(=O)NC(C)(C)C(=O)N[C@@H](CCC(=O)O)C(=O)N[C@@H](Cc1ccccc1)C(=O)N[C@H](C(=O)N[C@@H](CCC(=O)O)C(=O)N[C@@H](Cc1c[nH]c2ccccc12)C(=O)N[C@@H](CC(C)C)C(=O)N[C@@H](CCCCN)C(=O)N[C@@H](C)C(=O)N[C@H](C)C(=O)NCC(=O)N[C@@H](Cc1c[nH]cn1)C(=O)N1CCC[C@H]1C(=O)N[C@@H](CO)C(=O)NC(C)(C)C(=O)N[C@@H](CCCCN)C(=O)N1CCC[C@H]1C(=O)N1CCC[C@H]1C(=O)N1CCC[C@H]1C(=O)N[C@@H](CCCCN)C(N)=O)[C@@H](C)CC)C(=O)O)C(=O)O [SEQ ID NO: 13, H-Aib-Q-G-T-F-T-S-D-L-S-K-L-K[gGlu-gGlu-Palm]-E-K-Q-R-Q-Aib-E-F-I-E-W-L-K-A-dAla-G-H-P-S-Aib-K-P-P-P-K-NH2] (H-H[Aib]QGTFTSDLSKLK([γGlu-γGlu-Palmitoyl])EKQRQ[Aib]EFIEWLKA[dA]GHPS[Aib]KPPPK-NH2)",> 9300 µg/mL,−0.3 nm,2.8 nm,2.5 nm,
